# Experimental data taken from ChEMBL document CHEMBL1130941, “Comparison of the intrinsic kinase activity and substrate specificity of c-Abl and Bcr-Abl” (Bioorg Med Chem Lett, 1998).
# Peptide text beside a SMILES is read from it.
# Columns and labels:
# [1] = target: T1, Bcr/Abl fusion protein (Homo sapiens) (UniProt P00519+P11274); experiment: Vmax/Km value for peptide phosphorylation by Bcr-Abl protein tyrosine kinase; format: protein assay
# [2] = target: T1, Bcr/Abl fusion protein (Homo sapiens); experiment: Peptide phosphorylation by Bcr-Abl protein tyrosine kinase at 25 degree for 30 min in a cell-free system; format: protein assay
# [3] = target: T1, Bcr/Abl fusion protein (Homo sapiens); experiment: Ratio of peptide phosphorylation by Bcr-Abl and c-Abl protein tyrosine kinases; format: protein assay
# [4] = target: Tyrosine-protein kinase ABL1 (Homo sapiens) (UniProt P00519); experiment: Vmax/Km value for peptide phosphorylation by c-Abl protein tyrosine kinase
# Tyrosine-protein kinase ABL1 (Homo sapiens), sequence (P00519 whole entry): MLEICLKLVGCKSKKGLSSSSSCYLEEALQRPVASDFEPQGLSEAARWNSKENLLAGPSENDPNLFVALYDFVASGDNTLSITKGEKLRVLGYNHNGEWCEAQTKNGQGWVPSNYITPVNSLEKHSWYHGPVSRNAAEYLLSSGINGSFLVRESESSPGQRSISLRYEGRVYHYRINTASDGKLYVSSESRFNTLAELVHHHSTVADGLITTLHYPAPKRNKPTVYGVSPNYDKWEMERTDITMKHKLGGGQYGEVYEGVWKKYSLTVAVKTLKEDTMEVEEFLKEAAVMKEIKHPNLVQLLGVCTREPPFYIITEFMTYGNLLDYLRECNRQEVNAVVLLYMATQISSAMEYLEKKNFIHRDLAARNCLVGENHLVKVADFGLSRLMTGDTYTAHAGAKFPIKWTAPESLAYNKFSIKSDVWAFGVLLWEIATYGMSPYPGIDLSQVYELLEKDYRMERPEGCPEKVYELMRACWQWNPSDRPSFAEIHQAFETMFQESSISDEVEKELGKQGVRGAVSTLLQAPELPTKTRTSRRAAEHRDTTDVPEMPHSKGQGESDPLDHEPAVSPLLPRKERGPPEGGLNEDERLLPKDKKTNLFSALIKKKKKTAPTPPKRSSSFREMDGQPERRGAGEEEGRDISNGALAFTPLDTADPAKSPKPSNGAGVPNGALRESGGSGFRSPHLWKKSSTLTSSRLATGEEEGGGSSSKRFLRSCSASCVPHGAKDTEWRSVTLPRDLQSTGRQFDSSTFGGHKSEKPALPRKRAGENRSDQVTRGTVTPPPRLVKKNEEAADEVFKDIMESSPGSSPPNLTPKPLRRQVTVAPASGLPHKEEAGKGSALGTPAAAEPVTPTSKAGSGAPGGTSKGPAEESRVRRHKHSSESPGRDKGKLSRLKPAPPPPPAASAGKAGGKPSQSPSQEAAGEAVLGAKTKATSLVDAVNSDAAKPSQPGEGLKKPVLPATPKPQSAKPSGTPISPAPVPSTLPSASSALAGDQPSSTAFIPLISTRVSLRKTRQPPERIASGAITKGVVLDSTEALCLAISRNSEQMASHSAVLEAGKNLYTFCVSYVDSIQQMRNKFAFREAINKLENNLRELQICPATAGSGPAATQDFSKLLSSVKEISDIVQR
# [5] = target: Tyrosine-protein kinase ABL1 (Homo sapiens) (UniProt P00519); experiment: Peptide phosphorylation by c-Abl protein tyrosine kinase at 25 degree for 30 min in a cell-free system
# [6] = system: CC[C@H](C)[C@H](NC(=O)[C@H](CCC(=O)O)NC(=O)[C@H](CC(=O)O)NC(=O)[C@H](Cc1ccc(O)cc1)NC(=O)[C@@H](NC(=O)[C@H](CCC(=O)O)NC(=O)[C@@H](N)CCC(=O)O)[C@@H](C)CC)C(=O)N[C@@H](Cc1ccc(O)cc1)C(=O)O; experiment: (§1) Vmax value for peptide phosphorylation by Bcr-Abl protein tyrosine kinase; format: protein assay
# [7] = system: CC[C@H](C)[C@H](NC(=O)[C@H](CCC(=O)O)NC(=O)[C@@H](N)CCC(=O)O)C(=O)N[C@@H](Cc1ccc(O)cc1)C(=O)N[C@@H](Cc1ccc(O)cc1)C(=O)N[C@@H](Cc1ccc(O)cc1)C(=O)N[C@H](C(=O)N[C@@H](Cc1c[nH]cn1)C(=O)O)C(C)C; experiment: as §1; format: protein assay
# [8] = system: CC[C@H](C)[C@H](NC(=O)[C@H](CCCN=C(N)N)NC(=O)[C@@H](N)CCC(=O)O)C(=O)N[C@@H](Cc1ccc(O)cc1)C(=O)N[C@@H](C)C(=O)N[C@@H](CCCN=C(N)N)C(=O)N[C@H](C(=O)N[C@@H](CCCCN)C(=O)O)[C@@H](C)O; experiment: as §1; format: protein assay
# [9] = system: CC[C@H](C)[C@H](NC(=O)[C@H](CCC(=O)O)NC(=O)[C@@H](N)CCC(=O)O)C(=O)N[C@@H](Cc1ccc(O)cc1)C(=O)N[C@@H](CCC(=O)O)C(=O)N[C@@H](CCC(=O)O)C(=O)N1CCC[C@H]1C(=O)N[C@@H](Cc1ccc(O)cc1)C(=O)O; experiment: as §1; format: protein assay
# [10] = system: CC[C@H](C)[C@H](NC(=O)[C@H](CCC(=O)O)NC(=O)[C@@H](N)CCC(=O)O)C(=O)N[C@@H](Cc1ccc(O)cc1)C(=O)N[C@@H](C)C(=O)N[C@@H](CCC(=O)O)C(=O)N[C@@H](Cc1c[nH]c2ccccc12)C(=O)N[C@@H](Cc1ccccc1)C(=O)O; experiment: as §1; format: protein assay
# [11] = system: CC[C@H](C)[C@H](NC(=O)[C@H](CCC(=O)O)NC(=O)[C@@H](N)CCC(=O)O)C(=O)N[C@@H](Cc1ccc(O)cc1)C(=O)N[C@@H](CC(=O)O)C(=O)N[C@@H](Cc1ccc(O)cc1)C(=O)N[C@@H](C)C(=O)N[C@@H](Cc1ccc(O)cc1)C(=O)O; experiment: as §1; format: protein assay
# [12] = system: CC[C@H](C)[C@H](NC(=O)[C@H](CCC(=O)O)NC(=O)[C@H](CC(=O)O)NC(=O)[C@H](Cc1ccc(O)cc1)NC(=O)[C@@H](NC(=O)[C@H](CCC(=O)O)NC(=O)[C@@H](N)CCC(=O)O)[C@@H](C)CC)C(=O)N[C@@H](Cc1ccc(O)cc1)C(=O)O; experiment: (§2) Km value for peptide phosphorylation by Bcr-Abl protein tyrosine kinase; format: protein assay
# [13] = system: CC[C@H](C)[C@H](NC(=O)[C@H](CCC(=O)O)NC(=O)[C@@H](N)CCC(=O)O)C(=O)N[C@@H](Cc1ccc(O)cc1)C(=O)N[C@@H](Cc1ccc(O)cc1)C(=O)N[C@@H](Cc1ccc(O)cc1)C(=O)N[C@H](C(=O)N[C@@H](Cc1c[nH]cn1)C(=O)O)C(C)C; experiment: as §2; format: protein assay
# [14] = system: CC[C@H](C)[C@H](NC(=O)[C@H](CCCN=C(N)N)NC(=O)[C@@H](N)CCC(=O)O)C(=O)N[C@@H](Cc1ccc(O)cc1)C(=O)N[C@@H](C)C(=O)N[C@@H](CCCN=C(N)N)C(=O)N[C@H](C(=O)N[C@@H](CCCCN)C(=O)O)[C@@H](C)O; experiment: as §2; format: protein assay
# [15] = system: CC[C@H](C)[C@H](NC(=O)[C@H](CCC(=O)O)NC(=O)[C@@H](N)CCC(=O)O)C(=O)N[C@@H](Cc1ccc(O)cc1)C(=O)N[C@@H](CCC(=O)O)C(=O)N[C@@H](CCC(=O)O)C(=O)N1CCC[C@H]1C(=O)N[C@@H](Cc1ccc(O)cc1)C(=O)O; experiment: as §2; format: protein assay
# [16] = system: CC[C@H](C)[C@H](NC(=O)[C@H](CCC(=O)O)NC(=O)[C@@H](N)CCC(=O)O)C(=O)N[C@@H](Cc1ccc(O)cc1)C(=O)N[C@@H](C)C(=O)N[C@@H](CCC(=O)O)C(=O)N[C@@H](Cc1c[nH]c2ccccc12)C(=O)N[C@@H](Cc1ccccc1)C(=O)O; experiment: as §2; format: protein assay
# [17] = system: CC[C@H](C)[C@H](NC(=O)[C@H](CCC(=O)O)NC(=O)[C@@H](N)CCC(=O)O)C(=O)N[C@@H](Cc1ccc(O)cc1)C(=O)N[C@@H](CC(=O)O)C(=O)N[C@@H](Cc1ccc(O)cc1)C(=O)N[C@@H](C)C(=O)N[C@@H](Cc1ccc(O)cc1)C(=O)O; experiment: as §2; format: protein assay
# T1 sequence (P00519 whole entry, looked up, the tested form may be a part): as the sequence (P00519 whole entry) above
# T1 sequence (P11274 whole entry, looked up, the tested form may be a part): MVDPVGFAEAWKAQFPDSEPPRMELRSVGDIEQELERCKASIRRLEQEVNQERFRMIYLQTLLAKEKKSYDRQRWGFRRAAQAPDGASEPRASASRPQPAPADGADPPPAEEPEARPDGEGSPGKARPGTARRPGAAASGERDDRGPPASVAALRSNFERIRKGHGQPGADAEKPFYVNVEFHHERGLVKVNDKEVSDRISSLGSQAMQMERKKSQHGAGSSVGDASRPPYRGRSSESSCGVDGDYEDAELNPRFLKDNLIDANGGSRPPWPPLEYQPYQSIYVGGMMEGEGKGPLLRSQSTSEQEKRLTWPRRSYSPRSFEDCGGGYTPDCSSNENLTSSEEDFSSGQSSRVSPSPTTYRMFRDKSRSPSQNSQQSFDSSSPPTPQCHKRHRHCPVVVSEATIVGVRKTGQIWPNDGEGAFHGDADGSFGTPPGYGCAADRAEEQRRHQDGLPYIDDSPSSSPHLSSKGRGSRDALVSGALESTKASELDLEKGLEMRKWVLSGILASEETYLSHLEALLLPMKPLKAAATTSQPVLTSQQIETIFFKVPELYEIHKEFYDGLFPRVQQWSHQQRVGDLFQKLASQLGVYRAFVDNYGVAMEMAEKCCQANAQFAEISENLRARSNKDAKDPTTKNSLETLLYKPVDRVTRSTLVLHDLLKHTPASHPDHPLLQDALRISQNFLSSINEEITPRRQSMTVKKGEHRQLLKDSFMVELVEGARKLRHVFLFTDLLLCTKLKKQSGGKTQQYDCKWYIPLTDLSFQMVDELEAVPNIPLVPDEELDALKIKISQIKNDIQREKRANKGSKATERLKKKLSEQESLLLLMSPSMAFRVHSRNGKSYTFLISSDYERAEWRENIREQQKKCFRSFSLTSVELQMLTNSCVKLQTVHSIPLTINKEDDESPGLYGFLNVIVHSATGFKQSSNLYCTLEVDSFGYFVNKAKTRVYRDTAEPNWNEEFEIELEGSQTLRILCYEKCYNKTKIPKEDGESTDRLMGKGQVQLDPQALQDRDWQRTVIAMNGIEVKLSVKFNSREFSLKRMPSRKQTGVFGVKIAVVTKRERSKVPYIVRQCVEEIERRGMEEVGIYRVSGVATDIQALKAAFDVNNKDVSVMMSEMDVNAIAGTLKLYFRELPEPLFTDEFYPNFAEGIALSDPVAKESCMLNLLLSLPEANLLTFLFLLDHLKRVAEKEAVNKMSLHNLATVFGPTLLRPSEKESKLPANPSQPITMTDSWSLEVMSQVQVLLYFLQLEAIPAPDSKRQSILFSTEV
# Bcr/Abl fusion protein (Homo sapiens) (from UniProt P00519+P11274), sequence (P11274 whole entry, looked up, the tested form may be a part): as above
# Bcr/Abl fusion protein (Homo sapiens) (from UniProt P00519+P11274), sequence (P00519 whole entry, looked up, the tested form may be a part): as the sequence (P00519 whole entry) above
Vmax / Km (10^-9 L min-1) [1],Activity [2] [pM],Ratio [3],Vmax / Km (10^-9 L min-1) [4],Activity [5] [pmol],Molecule,other results
56.4,22.4,3.33,7.46,6.73,CC[C@H](C)[C@H](NC(=O)[C@H](CCC(=O)O)NC(=O)[C@@H](N)CCC(=O)O)C(=O)N[C@@H](Cc1ccc(O)cc1)C(=O)N[C@@H](CC(=O)O)C(=O)N[C@@H](Cc1ccc(O)cc1)C(=O)N[C@@H](C)C(=O)N[C@@H](Cc1ccc(O)cc1)C(=O)O (H-EEIYDYAY-OH),
,7.89,2.91,,2.71,CC[C@H](C)[C@H](NC(=O)[C@H](CCC(=O)O)NC(=O)[C@@H](N)Cc1ccc(O)cc1)C(=O)N[C@@H](Cc1ccc(O)cc1)C(=O)N[C@@H](CC(=O)O)C(=O)N[C@@H](Cc1ccc(O)cc1)C(=O)N[C@@H](Cc1ccc(O)cc1)C(=O)N[C@H](C(=O)O)C(C)C (H-YEIYDYYV-OH),
,4.33,2.29,,1.89,CC[C@H](C)[C@H](NC(=O)[C@H](Cc1ccc(O)cc1)NC(=O)[C@H](CC(=O)O)NC(=O)[C@H](Cc1ccc(O)cc1)NC(=O)[C@@H](NC(=O)[C@H](CCC(=O)O)NC(=O)[C@@H](N)Cc1ccc(O)cc1)[C@@H](C)CC)C(=O)N[C@@H](CCC(=O)O)C(=O)O (H-YEIYDYIE-OH),
,4.48,3.52,,1.27,CC[C@H](C)[C@H](NC(=O)[C@H](CCC(=O)O)NC(=O)[C@@H](N)CCC(=O)O)C(=O)N[C@@H](Cc1ccc(O)cc1)C(=O)N[C@@H](Cc1ccc(O)cc1)C(=O)N[C@@H](Cc1ccc(O)cc1)C(=O)N[C@@H](CCC(=O)O)C(=O)N[C@@H](CC(C)C)C(=O)O (H-EEIYYYEL-OH),
32.9,17.7,5.24,2.38,3.37,CC[C@H](C)[C@H](NC(=O)[C@H](CCC(=O)O)NC(=O)[C@@H](N)CCC(=O)O)C(=O)N[C@@H](Cc1ccc(O)cc1)C(=O)N[C@@H](Cc1ccc(O)cc1)C(=O)N[C@@H](Cc1ccc(O)cc1)C(=O)N[C@H](C(=O)N[C@@H](Cc1c[nH]cn1)C(=O)O)C(C)C (H-EEIYYYVH-OH),

# Further lines, the molecule ahead of its results:
Molecule,Vmax / Km (10^-9 L min-1) [1],Activity [2] [pM],Ratio [3],Vmax / Km (10^-9 L min-1) [4],Activity [5] [pmol],other results
CC[C@H](C)[C@H](NC(=O)[C@H](CCCN=C(N)N)NC(=O)[C@@H](N)CC(C)C)C(=O)N[C@@H](Cc1ccc(O)cc1)C(=O)N[C@@H](CCC(=O)O)C(=O)N[C@@H](CCCN=C(N)N)C(=O)N1CCC[C@H]1C(=O)N[C@@H](CCCN=C(N)N)C(=O)O (H-LRIYERPR-OH),,10.7,8.73,,1.23,
CC[C@H](C)[C@H](NC(=O)[C@H](Cc1c[nH]cn1)NC(=O)[C@@H](N)CCC(=O)O)C(=O)N[C@@H](Cc1ccc(O)cc1)C(=O)N[C@@H](Cc1c[nH]cn1)C(=O)N[C@@H](CCCN=C(N)N)C(=O)N[C@@H](Cc1c[nH]cn1)C(=O)N[C@@H](CCSC)C(=O)O (H-EHIYHRHM-OH),,2.73,8.27,,0.33,
CC[C@H](C)[C@H](NC(=O)[C@H](CCCN=C(N)N)NC(=O)[C@@H](N)CCC(=O)O)C(=O)N[C@@H](Cc1ccc(O)cc1)C(=O)N[C@@H](C)C(=O)N[C@@H](CCCN=C(N)N)C(=O)N[C@H](C(=O)N[C@@H](CCCCN)C(=O)O)[C@@H](C)O (H-ERIYARTK-OH),42.2,22.9,6.79,2.47,3.37,
CC[C@H](C)[C@H](NC(=O)[C@H](CCC(=O)O)NC(=O)[C@@H](N)CCC(=O)O)C(=O)N[C@@H](Cc1ccc(O)cc1)C(=O)N[C@@H](CCC(=O)O)C(=O)N[C@@H](CCC(=O)O)C(=O)N1CCC[C@H]1C(=O)N[C@@H](Cc1ccc(O)cc1)C(=O)O (H-EEIYEEPY-OH),98.8,25.5,3.38,12.1,7.56,
CC[C@H](C)[C@H](NC(=O)[C@H](CCCN=C(N)N)NC(=O)[C@@H]1CCCN1)C(=O)N[C@@H](Cc1ccc(O)cc1)C(=O)N[C@@H](CC(=O)O)C(=O)N[C@H](C(=O)N1CCC[C@H]1C(=O)N[C@@H](Cc1ccc(O)cc1)C(=O)O)[C@@H](C)CC (H-PRIYDIPY-OH),,9.5,5.97,,1.59,
CC[C@H](C)[C@H](NC(=O)[C@H](CCC(=O)O)NC(=O)[C@H](CC(=O)O)NC(=O)[C@H](Cc1ccc(O)cc1)NC(=O)[C@@H](NC(=O)[C@H](CCC(=O)O)NC(=O)[C@@H](N)CCC(=O)O)[C@@H](C)CC)C(=O)N[C@@H](Cc1ccc(O)cc1)C(=O)O (H-EEIYDEIY-OH),17.1,14.4,3.44,3.75,4.18,
CC[C@H](C)[C@H](NC(=O)[C@H](CCC(=O)O)NC(=O)[C@@H](N)CCC(=O)O)C(=O)N[C@@H](Cc1ccc(O)cc1)C(=O)N[C@@H](C)C(=O)N[C@@H](CCC(=O)O)C(=O)N[C@@H](Cc1c[nH]c2ccccc12)C(=O)N[C@@H](Cc1ccccc1)C(=O)O (H-EEIYAEWF-OH),97.6,22.6,3.98,14,5.69,
CC[C@H](C)[C@H](NC(=O)[C@H](CCC(=O)O)NC(=O)[C@H](Cc1ccc(O)cc1)NC(=O)[C@@H](NC(=O)[C@H](CC(=O)O)NC(=O)[C@@H](N)CC(=O)O)[C@@H](C)CC)C(=O)N[C@@H](Cc1ccc(O)cc1)C(=O)N[C@@H](Cc1c[nH]c2ccccc12)C(=O)O (H-DDIYEIYW-OH),,4.35,4.92,,0.88,
Bcr/Abl fusion protein (Homo sapiens) (from UniProt P00519+P11274),,,,,,Vmax [6]: 7.5 pmol/min; Vmax [7]: 4.64 pmol/min; Vmax [8]: 5.1 pmol/min; Vmax [9]: 10.5 pmol/min; Vmax [10]: 5.27 pmol/min; Vmax [11]: 7.33 pmol/min; Km [12]: 439 µM; Km [13]: 141 µM; Km [14]: 121 µM; Km [15]: 106 µM; Km [16]: 54 µM; Km [17]: 130 µM
